The results in this text go back to ChEMBL document CHEMBL1132044, “Synthesis and in vitro and in vivo evaluation of the 2-(6'methoxy-3',4'-dihydro-1'-naphtyl)-4H-3,1-benzoxazin-4-one as a new potent substrate inhibitor of human leukocyte elastase” (Bioorg Med Chem Lett, 1999).

The target of experiment [1] is T1, Neutrophil elastase (Homo sapiens) (UniProt P08246).
T1 sequence (whole entry): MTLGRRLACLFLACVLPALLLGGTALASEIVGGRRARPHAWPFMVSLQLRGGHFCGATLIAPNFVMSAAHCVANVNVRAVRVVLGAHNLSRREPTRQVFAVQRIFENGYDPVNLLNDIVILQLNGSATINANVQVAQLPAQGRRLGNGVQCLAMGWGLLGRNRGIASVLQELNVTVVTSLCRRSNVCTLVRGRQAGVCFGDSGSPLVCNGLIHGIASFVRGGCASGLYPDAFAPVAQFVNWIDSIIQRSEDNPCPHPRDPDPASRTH
Briefly: In vitro inhibitory activity against human leukocyte elastase (HLE), at a concentration of 1.5 uM.

Experiment [2] has as its target T1, Neutrophil elastase (Homo sapiens). Briefly: In vitro inhibitory activity against human leukocyte elastase (HLE), at a concentration of 15 uM.
For experiment [3] the target is unchanged. Briefly: In vitro inhibitory activity against human leukocyte elastase (HLE), at a concentration of 75 uM.
A further experiment addresses T2, Neutrophil elastase (Homo sapiens, UniProt P08246).
T2 sequence (P08246 whole entry): T1 sequence (whole entry)
Nature of the experiment: In vitro inhibitory activity against human leukocyte elastase (HLE).

For `CCOC(=O)C1CCC(c2nc3ccccc3c(=O)o2)=CC1C` (centres undefined), the inhibition (in general, the change of the read-out against control, counted positive when it falls) in experiment [1] is 6%; in experiment [2] it was 12%; in experiment [3], 20.8%.
Regarding `COc1ccc2c(c1)CCC=C2c1nc2ccccc2c(=O)o1`, the IC50 – broadly, the concentration needed to halve the response being measured – against Neutrophil elastase was found to be 0.61 µM. Further, the inhibition in experiment [1] turned out to be 69.9%; in experiment [2] it was 92.8%; in experiment [3], 99.6%.
At Neutrophil elastase, `O=c1oc(/C2=C/CCCCCC2)nc2ccccc12` registered an IC50 of 7 µM. The results for the inhibition in experiment [1], in experiment [2] and in experiment [3] were 23%, 64.5% and 87%, respectively.
On Neutrophil elastase, `O=c1oc(-c2ccco2)nc2ccccc12` yielded an IC50 of 5.5 µM. Also, the values for the inhibition in experiment [1], in experiment [2] and in experiment [3] were 22.6%, 65% and 88.7%, respectively.
In the case of `O=c1oc(-c2ccccc2)nc2ccccc12`, 17 µM corresponded to half-maximal inhibition against Neutrophil elastase (IC50). Further, the figures for the inhibition in experiment [1], in experiment [2] and in experiment [3] were 16.2%, 45.7% and 76%, respectively.
